Data published in paper PMC11327220 (Bioscience Reports, 2024).
Several values for one entry are separate records, joined by “and”; a condition that tells them apart may be missing. Equal entries are not always repeated. Where two headings read alike, the source gives them in different places.

Legend:
[1] = molecular target: T1, SARS-CoV-2 3CLpro (Severe acute respiratory syndrome coronavirus 2, UniProt P0DTD1); test: biochemical; format: biochemical
[2] = molecular target: 3CLpro (Severe acute respiratory syndrome coronavirus 2, UniProt P0DTD1); format: binding, SARS-CoV-2
[3] = molecular target: SARS-CoV-1 3CLpro (Severe acute respiratory syndrome coronavirus, UniProt P0C6X7); test: biochemical
[4] = test system: SARS-CoV-2 (ancestral strain A2.2); test: microbe, parasite or virus in culture; format: cell-based; conditions: Severe acute respiratory syndrome coronavirus 2, HEK-293T, read-out: IC50 in the live virus assay
[5] = molecular target: T1, SARS-CoV-2 3CLpro; test: Inhibition kinetics of luteolin (competitive inhibition fit); format: biochemical
[6] = molecular target: MERS 3CLpro (Middle East respiratory syndrome-related coronavirus, UniProt K9N7C7); test: biochemical
[7] = read-out: IC50 of micronutrients against 3CLpro
[8] = additive in the absence of luteolin
[9] = one additive: 100 µM luteolin, 3.5 mM magnesium, 2.3 mM manganese, 0.3 mM zinc or 0.3 mM vitamin C, free enzyme 133 ± 4
[10] = 2.3 mM manganese, 3.5 mM magnesium or 0.3 mM vitamin C, no luteolin
[11] = 0.3 mM vitamin C in the presence of 100 µM luteolin
[12] = versus luteolin without micronutrients

Sequence of MERS 3CLpro (K9N7C7 3248-3553 limits assumed): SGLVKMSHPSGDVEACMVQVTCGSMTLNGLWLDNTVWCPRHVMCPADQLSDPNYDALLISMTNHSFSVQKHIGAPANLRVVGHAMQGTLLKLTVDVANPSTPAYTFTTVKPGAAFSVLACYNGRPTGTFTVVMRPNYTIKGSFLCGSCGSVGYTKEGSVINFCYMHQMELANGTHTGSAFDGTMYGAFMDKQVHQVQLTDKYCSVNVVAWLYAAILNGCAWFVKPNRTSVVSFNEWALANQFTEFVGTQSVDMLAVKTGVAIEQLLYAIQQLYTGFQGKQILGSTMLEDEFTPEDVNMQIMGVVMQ

[Ca+2].[Cl-].[Cl-] [CaCl2]
IC50 [1, 7]: 1900 ± 200 µM

O=c1c2ccccc2[se]n1-c1ccccc1 [Ebselen, reference compound]
percentage inhibition of SARS-CoV-2 3CLpro [1]: completely inhibits

[Cl-].[Cl-].[Mg+2] [MgCl2]
IC50 [1, 7]: 24000 ± 1100 µM
Tm of the first transition (Tm1) of 3CLpro [2]: 35 ± 0.3 °C
Tm of the second transition (Tm2) of 3CLpro [2]: 45 ± 0.5 °C
fold increase of ΔHcal over free 3CLpro [2, 8]: 2 fold
calorimetric enthalpy (ΔHcal) of unfolding of 3CLpro [2, 9]: 63.1 ± 3.59 kcal/mol

[Cl][Mn][Cl] [MnCl2]
IC50 [1, 7]: 2300 ± 200 µM
Tm of the first transition (Tm1) of 3CLpro [2, 10]: 35 ± 0.3 °C
Tm of the second transition (Tm2) of 3CLpro [2, 10]: 45 ± 0.5 °C
fold increase of ΔHcal over free 3CLpro [2, 8]: 3 fold
calorimetric enthalpy (ΔHcal) of unfolding of 3CLpro [2, 9]: 85.1 ± 10.8 kcal/mol

O=C1O[C@H]([C@@H](O)CO)C(O)=C1O [Vitamin C, L-ascorbate]
IC50 [1]: 800 ± 20 µM
Tm of the first transition (Tm1) of 3CLpro [2]: 34 °C
Tm of the second transition (Tm2) of 3CLpro [2]: 45 ± 0.7 °C
calorimetric enthalpy (ΔHcal) of unfolding of 3CLpro [2, 11]: 307.8 ± 32.58 kcal/mol
fold increase of ΔHcal over free 3CLpro [2, 11]: 10 fold
Tm of the late transition (Tm3) of 3CLpro ([2]; 0.3 mM vitamin C, no luteolin): 56 ± 0.2 °C
fold increase of ΔHcal over free 3CLpro [2, 8]: 8 fold
calorimetric enthalpy (ΔHcal) of unfolding of 3CLpro [2, 9]: 247.1 ± 13.9 kcal/mol

[Cl-].[Cl-].[Zn+2] [ZnCl2]
IC50 [1, 7]: 1100 ± 200 µM
decrease of Tm compared with apo-3CLpro [2]: approximately 6 °C
melting point (Tm) of 3CLpro, single transition [2]: 41 ± 0.4 °C
fold increase of ΔHcal over free 3CLpro [2, 8]: 4 fold
calorimetric enthalpy (ΔHcal) of unfolding of 3CLpro [2, 9]: 108 ± 12 kcal/mol

O=c1cc(-c2ccc(O)c(O)c2)oc2cc(O)cc(O)c12 [luteolin, 2-(3,4-dihydroxyphenyl)-5,7-dihydroxy-4H-chromen-4-one]
IC50 [3]: 711 ± 130 µM
IC50 [4]: 90 ± 11 µM
fold decrease of the IC50 of luteolin with the combination of vitamin C and magnesium [1]: 3 fold
fold decrease of the IC50 of luteolin with the combination of zinc and magnesium [1]: 2 fold
IC50 ([1]; 2 µM 3CLpro, 60 µM peptide substrate, absence of micronutrients): 78 µM
inhibition at 25 µM ([1]; read-out: percentage inhibition of SARS-CoV-2 3CLpro): 41%
fold decrease of the IC50 of luteolin in the presence of magnesium [1, 12]: 1.7 fold and 2 fold
fold decrease of the IC50 of luteolin in the presence of magnesium, zinc, and vitamin C [1, 12]: 10 fold
fold increase of the IC50 of luteolin in the presence of calcium [1, 12]: 2 fold
fold increase of the IC50 of luteolin in the presence of zinc [1, 12]: 2 fold
Ki [5]: 93 ± 12 µM
fold increase of Ka over Km of the peptide substrate in the absence of inhibitor ([5]; in the presence of luteolin): ~6 fold
apparent Michaelis constant (Ka) for the peptide substrate in the presence of luteolin ([5]; luteolin 40-400 µM, Km without inhibitor 66 ± 7 µM): 406 ± 48 µM
inhibition pattern ([5]; luteolin versus the peptide substrate): competitive inhibition
IC50 [6]: 388 ± 59 µM
melting point (Tm) of 3CLpro, single transition ([2]; 25 μM 3CLpro with 100 µM luteolin or 0.3 mM zinc, apo-3CLpro 46.7 ± 0.1): 46.7 ± 0.1 °C
effect of adding luteolin on the thermograms of 3CLpro in the presence of metal ions ([2]; 100 µM luteolin with metal ions): minimal effect
calorimetric enthalpy (ΔHcal) of unfolding of 3CLpro [2, 9]: 24.1 ± 3.59 kcal/mol
